From patent US12139508B2, “Steroid derivative regulators, method for preparing the same, and uses thereof” (JIANGSU HANSOH PHARMACEUTICAL GROUP CO., LTD., priority 2018, dated 2024)
Like-named read-outs stand apart in the source and are kept apart here.

Tests used:
[1] = Pharmacokinetic assay in Balb/c mice (plasma and brain tissue); type: in vivo; settings: mouse, po, 5 mg/kg p.o., male Balb/c mice; for AUC(0-t): read-out: Area under curve AUC0-t; for AUC(0-inf): read-out: Area under curve AUC0-∞; for half-life: read-out: Half-life t1/2 (converted); for MRT: read-out: Mean residence time MRT; for Tmax: read-out: Peak time tmax; for Cmax: read-out: Plasma concentration Cmax
Method: Balb/c mice were used as test animals. The pharmacokinetic behavior in mice (plasma and brain tissue) of the compounds of Examples 2, 3, 5, 6, 9, 13, 59, 60, 61, 63, 71-74, 81, 103, 130, 134, 135, 137, 138, 140, 141, 143, 145 and 146 orally administered at a dose of 5 mg/kg was studied.
Each group had 24 male Balb/c mice. After an overnight fast, Balb/c mice were administered p.o. with the test compound at an administration dose of 5 mg/kg and an administration volume of 10 mL/kg.
0.2 ml of blood was taken from the heart before administration and at 0, 0.5, 1, 2, 4, 6, 8 and 24 hours after administration. The samples were stored in EDTA-K2 tubes, and centrifuged for 6 minutes at 4° C., 6000 rpm to separate the plasma. The plasma samples were stored at −80° C. The mice were sacrificed with CO2, and the whole brain tissue was taken out, weighed, placed in a 2 mL centrifuge tube and stored at −80° C.
1) 160 μL of acetonitrile was added to 40 μL of the plasma sample for precipitation, and then the mixture was centrifuged for 5-20 minutes at 3500×g.
2) 90 μL of acetonitrile containing the internal standard (100 ng/mL) was added to 30 μL of the plasma and brain homogenate samples for precipitation, and then the mixture was centrifuged for 8 minutes at 13000 rpm.
3) 70 μL of the treated supernatant was taken and added to 70 μL of water, and mixed by vortex for 10 minutes. 20 μL of the mixture was taken to analyze the concentration of the test compound by LC/MS/MS. LC/MS/MS analysis instrument: AB Sciex API 4000 Qtrap.
• Liquid chromatography condition: Shimadzu LC-20AD pump. • Chromatographic column: Agilent ZORBAX™ XDB-C18 (50×2.1 mm, 3.5 μm) (note: Aglient ZORBAX™ is a kind of column used in the reverse HPLC); • Mobile phase: Eluent A was 0.10% formic acid in water, and Eluent B was acetonitrile. • Flow rate: 0.4 mL/min • Elution time: 0-4.0 minutes, the eluent is as follows:
The main parameters of pharmacokinetics were calculated by WinNonlin 6.1.

[2] = test system: forced-swimming mice; assay: In vivo pharmacodynamic test in the forced swimming model in mice; settings: ICR mice; for Mean (immobility, %): dose 10 mpk p.o., 100*floating time/240 s; for Immobility time during the latter four minutes compared with that of the model group: forced swimming
Method: The antidepressant effect of the compound was evaluated by the forced swimming model in mice.
Male ICR mice (25-35 g) were adapted in the test environment for 3 days before the forced swimming test.
According to the test design, the mice were randomly grouped on the day before the test according to body weight, with 12 mice in each group. Before the test, the compounds of each example were administered intragastrically according to the Tmax thereof in the brain in mice pharmacokinetic test as follows: • 1) Model group (0.5% CMC-Na-1% Tween 80 solution, p.o., 10 mL/kg); • 2) Compounds of Example 2, Example 3, Example 5, Example 6, Example 9, Examples 59-63, Examples 71-73, Example 103, Example 135, Example 137, Example 145 and Example 146 (10 mg/kg, p.o., 10 mL/kg); Example 13 and Example 74 (5 mg/kg, p.o., 5 mL/kg).
When being administered, the compounds of each example were suspended in 0.5% CMC-Na+1% Tween 80 solution to the desired concentration.
0.5-1 hour after administration, ICR mice were placed in a forced swimming device (transparent glass drum (water depth 18 cm, water temperature 25-26° C.), one mouse per tank) and forced to swim for 6 minutes. The forced swimming device recorded the floating time of the ICR mice during the entire 6 minutes, and the data of the latter four minutes were used for data analysis. The mice were taken out immediately after the swimming test, wiped dry and put back in their original cages.
Note: The criterion for determining the immobility time is that the mouse stops struggling in water and floats, and there are only slight limb movements to keep the head floating on the water.
3.4 Data Analysis Floating time percentage=100*floating time/240 s.

[3] = target: GABA-A receptor; assay: 35S-TBPS binding assay (GABAA receptor binding ability test); design: species or system Sprague-Dawley rat; settings: rat cerebral cortex cell membrane, 5 μM GABA, 2 nM 35S-TBPS; read-out: 35S-TBPS bindng test: IC50 on inhibiting the TBPS binding activity
How it was run: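 Rat (male Sprague-Dawley) cortical membranes in PBS were preincubated 5 min at 25° C with compound (from 1 μM, 3-fold, 8 points, 1% DMSO), then 5 μM GABA 5 min, then 2 nM ^35S-TBPS for 20 h at 4° C. Filter-bound counts gave % inhibition against DMSO and 10 μM P026-2 controls; IC50 by 4-parameter fit.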

C[C@@]1(O)CC[C@H]2[C@H](CC[C@@H]3[C@@H]2CC[C@@]2(C)[C@H]3[C@H](C3CC3)C[C@@H]2C(=O)Cn2ccc(C#N)n2)C1 [Example 72, 1-(2-((3R,5R,8R,9R,10S,13S,14S,15S,17S)-15-Cyclopropyl-3-hydroxy-3,13-dimethylhexadecahydro-1H-cyclopenta[a]phenanthren-17-yl)-2-oxoethyl)-1H-pyrazole-3-carbonitrile]
AUC(0-t) ([1]; brain tissue): 2050 ng·h/mL | AUC(0-inf) ([1]; brain tissue): 2240 ng·h/mL | half-life ([1]; brain tissue): 2.12 h | MRT ([1]; brain tissue): 3.17 h | Tmax ([1]; brain tissue): 0.5 h | Cmax ([1]; brain tissue): 724 ng/mL | AUC(0-t) ([1]; plasma): 2970 ng·h/mL | AUC(0-inf) ([1]; plasma): 2970 ng·h/mL | half-life ([1]; plasma): 2.79 h | MRT ([1]; plasma): 3.71 h | Tmax ([1]; plasma): 0.5 h | Cmax ([1]; plasma): 1150 ng/mL | Mean (immobility, %) [2]: 35.74% | Immobility time during the latter four minutes compared with that of the model group [2]: significantly different

C[C@@]1(O)CC[C@H]2[C@H](CC[C@@H]3[C@@H]2CC[C@@]2(C)[C@H]3[C@H](C3CC3)C[C@@H]2C(=O)Cn2nccn2)C1 [Example 73, 1-((3R,5R,8R,9R,10S,13S,14S,15S,17S)-15-Cyclopropyl-3-hydroxy-3,13-dimethylhexadecahydro-1H-cyclopenta[a]phenanthren-17-yl)-2-(2H-1,2,3-triazol-2-yl)ethan-1-one]
AUC(0-t) ([1]; brain tissue): 1100 ng·h/mL | AUC(0-inf) ([1]; brain tissue): 1120 ng·h/mL | half-life ([1]; brain tissue): 1.31 h | MRT ([1]; brain tissue): 1.91 h | Tmax ([1]; brain tissue): 0.5 h | Cmax ([1]; brain tissue): 636 ng/mL | AUC(0-t) ([1]; plasma): 2430 ng·h/mL | AUC(0-inf) ([1]; plasma): 2480 ng·h/mL | half-life ([1]; plasma): 1.4 h | MRT ([1]; plasma): 2.06 h | Tmax ([1]; plasma): 0.5 h | Cmax ([1]; plasma): 1300 ng/mL | Mean (immobility, %) [2]: 29.57% | Immobility time during the latter four minutes compared with that of the model group [2]: significantly different

C[C@@H]1C[C@H](C(=O)Cn2nc(C#N)cc2C#N)[C@@]2(C)CC[C@H]3[C@@H](CC[C@@H]4C[C@](C)(O)CC[C@@H]43)[C@H]12 [Example 135, 1-(2-((3R,5R,8R,9R,10S,13S,14S,15R,17S)-3-Hydroxy-3,13,15-trimethylhexadecahydro-1H-cyclopenta[a]phenanthren-17-yl)-2-oxoethyl)-1H-pyrazole-3,5-dicarbonitrile]
AUC(0-t) ([1]; brain tissue): 3740 ng·h/mL | AUC(0-inf) ([1]; brain tissue): 4450 ng·h/mL | half-life ([1]; brain tissue): 2.82 h | MRT ([1]; brain tissue): 4.71 h | Tmax ([1]; brain tissue): 2 h | Cmax ([1]; brain tissue): 724 ng/mL | AUC(0-t) ([1]; plasma): 4100 ng·h/mL | AUC(0-inf) ([1]; plasma): 4110 ng·h/mL | half-life ([1]; plasma): 2.06 h | MRT ([1]; plasma): 4.38 h | Tmax ([1]; plasma): 2 h | Cmax ([1]; plasma): 640 ng/mL | IC50 [3]: 4.3 nM

CC[C@@H]1C[C@H](C(=O)Cn2ccc(C(F)(F)F)n2)[C@@]2(C)CC[C@H]3[C@@H](CC[C@@H]4C[C@](C)(O)CC[C@@H]43)[C@H]12 [Example 138, 1-((3R,5R,8R,9R,10S,13S,14S,15R,17S)-15-Ethyl-3-hydroxy-3,13-dimethylhexadecahydro-1H-cyclopenta[a]phenanthren-17-yl)-2-(3-(trifluoromethyl)-1H-pyrazol-1-yl)ethan-1-one]
AUC(0-t) ([1]; brain tissue): 773 ng·h/mL | AUC(0-inf) ([1]; brain tissue): 935 ng·h/mL | half-life ([1]; brain tissue): 1.47 h | MRT ([1]; brain tissue): 2.38 h | Tmax ([1]; brain tissue): 0.5 h | Cmax ([1]; brain tissue): 314 ng/mL | AUC(0-t) ([1]; plasma): 662 ng·h/mL | AUC(0-inf) ([1]; plasma): 730 ng·h/mL | half-life ([1]; plasma): 1.66 h | MRT ([1]; plasma): 2.83 h | Tmax ([1]; plasma): 0.5 h | Cmax ([1]; plasma): 432 ng/mL | IC50 [3]: 25.2 nM

CC[C@@H]1C[C@H](C(=O)Cn2ccnn2)[C@@]2(C)CC[C@H]3[C@@H](CC[C@@H]4C[C@](C)(O)CC[C@@H]43)[C@H]12 [Example 140, 1-((3R,5R,8R,9R,10S,13S,14S,15R,17S)-15-Ethyl-3-hydroxy-3,13-dimethylhexadecahydro-1H-cyclopenta[a]phenanthren-17-yl)-2-(1H-1,2,3-triazol-1-yl)ethan-1-one]
AUC(0-t) ([1]; brain tissue): 4330 ng·h/mL | AUC(0-inf) ([1]; brain tissue): 4540 ng·h/mL | half-life ([1]; brain tissue): 1.21 h | MRT ([1]; brain tissue): 2.1 h | Tmax ([1]; brain tissue): 0.5 h | Cmax ([1]; brain tissue): 1740 ng/mL | AUC(0-t) ([1]; plasma): 5980 ng·h/mL | AUC(0-inf) ([1]; plasma): 6110 ng·h/mL | half-life ([1]; plasma): 1.19 h | MRT ([1]; plasma): 2.22 h | Tmax ([1]; plasma): 0.5 h | Cmax ([1]; plasma): 2480 ng/mL | IC50 [3]: 33.1 nM

CC[C@@H]1C[C@H](C(=O)Cn2nccn2)[C@@]2(C)CC[C@H]3[C@@H](CC[C@@H]4C[C@](C)(O)CC[C@@H]43)[C@H]12 [Example 141, 1-((3R,5R,8R,9R,10S,13S,14S,15R,17S)-15-Ethyl-3-hydroxy-3,13-dimethylhexadecahydro-1H-cyclopenta[a]phenanthren-17-yl)-2-(2H-1,2,3-triazol-2-yl)ethan-1-one]
AUC(0-t) ([1]; brain tissue): 2150 ng·h/mL | AUC(0-inf) ([1]; brain tissue): 2250 ng·h/mL | half-life ([1]; brain tissue): 1.68 h | MRT ([1]; brain tissue): 2.68 h | Tmax ([1]; brain tissue): 0.5 h | Cmax ([1]; brain tissue): 1050 ng/mL | AUC(0-t) ([1]; plasma): 3550 ng·h/mL | AUC(0-inf) ([1]; plasma): 3630 ng·h/mL | half-life ([1]; plasma): 1.35 h | MRT ([1]; plasma): 2.55 h | Tmax ([1]; plasma): 0.5 h | Cmax ([1]; plasma): 1630 ng/mL | IC50 [3]: 23.9 nM

C[C@@]1(O)CC[C@H]2[C@H](CC[C@@H]3[C@@H]2CC[C@@]2(C)[C@H]3[C@H](C3CC3)C[C@@H]2C(=O)Cn2nc(C#N)cc2C#N)C1 [Example 143, 1-(2-((3R,5R,8R,9R,10S,13S,14S,15S,17S)-15-Cyclopropyl-3-hydroxy-3,13-dimethylhexadecahydro-1H-cyclopenta[a]phenanthren-17-yl)-2-oxoethyl)-1H-pyrazole-3,5-dicarbonitrile]
AUC(0-t) ([1]; brain tissue): 8820 ng·h/mL | AUC(0-inf) ([1]; brain tissue): 9220 ng·h/mL | half-life ([1]; brain tissue): 3.95 h | MRT ([1]; brain tissue): 7.81 h | Tmax ([1]; brain tissue): 2 h | Cmax ([1]; brain tissue): 812 ng/mL | AUC(0-t) ([1]; plasma): 6290 ng·h/mL | AUC(0-inf) ([1]; plasma): 6490 ng·h/mL | half-life ([1]; plasma): 1.7 h | MRT ([1]; plasma): 3.08 h | Tmax ([1]; plasma): 0.5 h | Cmax ([1]; plasma): 1650 ng/mL | IC50 [3]: 28.5 nM
